What was measured:
HSC-T6 cells = experiment: Cell viability (MTS), HSC-T6 cells; format: cell-based, rat; details: 24 hours; effect more significant than sorafenib; FIG. 14A
Experimental: (§1) Rat immortal hepatic stellate cell line HSC-T6 and LX2 human hepatic stellate cell line were provided by Professor Scott Friedman of Mount Sinai Hospital in New York, USA. The primary mouse HSCs were obtained via the way: after intubating the hepatic portal vein of the mouse, the cells were perfused with Leffert's and ethylene glycol bis-aminoethyl ether tetraacetic acid (EGTA) buffer in situ, and then collagenase was injected to digest the liver tissue, and then the primary mouse HSCs were isolated by Histodnz gradient. […]
HSC-T6 cells, LX2 cells or primary mouse HSCs cells were seeded in 96-well plates (5,000 cells/well) for 24 hours, and the cells were treated with various concentrations of 1-[4-chloro-3-(trifluoromethyl)phenyl]-3-[3-(4-cyanophenoxy)phenyl]urea or Sorafenib for 24 or 48 hours. The effect of each reagent on the cell viability and the cell were evaluated by CellTiter 96 AQueous one solution of 3-(4,5-dimethylthiazol-2-yl)-5-(3-carboxymethoxyphenyl)-2-(4-sulfophenyl)-2H-tetra zolium, an inner, MTS (Promega, USA). […] The proportion of apoptotic cells was mixed the early (Annexin V+/PI−) and the late (Annexin V+/PI+) apoptotic cells measured by BD FACS Verse flow cytometry (BD, USA).

[1] = system: PDGFR and STAT3 pathways in HSC-T6 cells; experiment: Western blot of signalling proteins in HSC-T6 cells; format: cell-based, rat
Experimental: as §1, with “gradient. HSC-T6 cells were cultured in Waymouth medium; LX2 cells and primary mouse HSCs were cultured in Dulbecco's Modified Eagle Medium (DMEM) containing 10% fetal bovine serum (FBS), 100 μg/mL penicillin, 100 μg/mL streptomycin, and 2 mM L-glutamine HSC-T6 cells, LX2 cells and primary mouse HSCs were cultured in a humidified incubator containing 5% carbon dioxide at 37° C. After adding the FBS, the resting HSC is started.” for “gradient.”
Whole-cell extracts were obtained via RIPA buffer (Millipore, USA) and protein concentrations were quantified via a BCA protein assay kit (Thermo Fisher Scientific, USA). […] Proteins were detected by Immobilon Western Chemiluminescent HRP substrate (Millipore, USA) or ECL detection system (UVP Corporation, USA). […]

SHP-1 [2] = target: T1, SHP-1 (Homo sapiens, UniProt P29350); experiment: SHP-1 phosphatase activity, LX2 cells; format: cell-based
T1 construct: LX2 cell protein extract were reacted with anti-SHP-1 antibody in immunoprecipitation buffer overnight; endogenous in cells; host or cells: LX2 cells
T1 sequence (P29350 whole entry): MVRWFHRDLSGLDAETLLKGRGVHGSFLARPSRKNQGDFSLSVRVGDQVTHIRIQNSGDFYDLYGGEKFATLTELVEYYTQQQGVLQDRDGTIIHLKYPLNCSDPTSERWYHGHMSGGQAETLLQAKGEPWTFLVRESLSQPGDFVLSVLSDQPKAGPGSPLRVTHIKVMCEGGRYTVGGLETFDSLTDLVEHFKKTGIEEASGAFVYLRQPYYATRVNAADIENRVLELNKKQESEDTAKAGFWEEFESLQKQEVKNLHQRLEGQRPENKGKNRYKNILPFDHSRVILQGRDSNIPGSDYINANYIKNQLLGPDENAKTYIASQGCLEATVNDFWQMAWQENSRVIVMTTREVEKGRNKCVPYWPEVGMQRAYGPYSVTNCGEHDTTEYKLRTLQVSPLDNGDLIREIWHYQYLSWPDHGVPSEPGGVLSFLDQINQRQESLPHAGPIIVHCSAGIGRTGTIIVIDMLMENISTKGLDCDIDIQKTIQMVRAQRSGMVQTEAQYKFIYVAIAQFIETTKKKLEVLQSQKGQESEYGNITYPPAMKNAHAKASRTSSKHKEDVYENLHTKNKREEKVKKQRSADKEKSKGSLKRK
Experimental: After drug treatment, mouse fibroblasts (NIH3T3 cell line), human lung epithelial cells (A549 cell line) or LX2 cell protein extract were reacted with anti-SHP-1 antibody in immunoprecipitation buffer overnight. Protein A/G Sepharose Fast Flow Beads (GE) were added to each sample, followed by a rotation reaction at 4° C. for 3 hours. The 96EnzChek® tyrosine phosphatase assay kit (R-22067) was used for SHP-1 activity assay (Invitrogen, USA).
Plasmids encoding the human wild-type SHP-1 and SHP-1 mutant, in which the N—SH2 domain was truncated (dN1) or one aspartic acid at site 61 was changed into an alanine residue (D61A) were cloned into the pCMV6-entry vector with myc-tag. These mutants were confirmed through DNA sequencing. Smart-pool siRNA, including the control (D-001810-10), and SHP-1 (PTPN6, L-009778-00-0005) were obtained from Dharmacon Inc. (Chicago, Ill., USA). For transient expression, SHP-1 plasmids or siRNA (final concentration, 100 nM) with the Lipofectamine 2000 transfection reagent were pretransfected into the LX2 cells for 24 h, following the manufacturer's instructions.

SHP-1 [3] = target: T2, SHP-1 (Rattus norvegicus, UniProt P81718); experiment: SHP-1 phosphatase activity, HSC-T6 cells; format: cell-based; details: sorafenib 5 μM, compound 2.5 or 5 μM, FIG. 16C
T2 construct: endogenous in cells; host or cells: HSC-T6 cells
T2 sequence (P81718 whole entry): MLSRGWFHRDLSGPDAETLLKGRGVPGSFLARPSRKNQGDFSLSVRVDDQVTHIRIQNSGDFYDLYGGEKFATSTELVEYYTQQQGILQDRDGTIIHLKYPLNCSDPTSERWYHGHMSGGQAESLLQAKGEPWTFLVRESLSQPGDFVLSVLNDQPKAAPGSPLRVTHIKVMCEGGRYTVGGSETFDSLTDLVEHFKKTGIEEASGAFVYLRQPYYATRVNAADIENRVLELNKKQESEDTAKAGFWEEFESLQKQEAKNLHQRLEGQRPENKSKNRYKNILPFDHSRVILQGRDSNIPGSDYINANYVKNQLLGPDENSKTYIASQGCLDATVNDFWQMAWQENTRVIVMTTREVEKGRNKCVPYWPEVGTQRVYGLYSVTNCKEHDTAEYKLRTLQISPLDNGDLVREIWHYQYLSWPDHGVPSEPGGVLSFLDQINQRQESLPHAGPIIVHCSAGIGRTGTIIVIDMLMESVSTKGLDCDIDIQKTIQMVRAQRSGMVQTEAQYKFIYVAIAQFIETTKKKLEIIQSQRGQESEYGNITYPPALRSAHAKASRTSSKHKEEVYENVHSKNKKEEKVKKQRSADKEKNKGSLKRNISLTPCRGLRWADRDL

Question: What does the source list for `N#Cc1ccc(Oc2cccc(NC(=O)Nc3ccc(Cl)c(C(F)(F)F)c3)c2)cc1` [1-[4-chloro-3-(trifluoromethyl)phenyl]-3-[3-(4-cyanophenoxy)phenyl]urea]?
Answer: viability of HSC-T6 cells (HSC-T6 cells): dose-dependent effects to reduce the viability; p-PDGFR and p-Akt in the PDGFR pathway ([1]; 10 μM for 4 hours, then PDGF-BB 100 ng/mL 10 minutes, FIG. 14E): downregulated; downregulation of p-STAT3 and cyclin D1, compared with sorafenib ([1]; FIG. 15A): more significant dose-escalation effects on the downregulation; SHP-1 activity in the ectopic expression of the vector and wild-type SHP-1 (SHP-1 [2]; FIG. 17C): significantly increased the SHP-1 activity; SHP-1 activity (SHP-1 [2]; LX2, sorafenib 5 μM, compound 2.5 or 5 μM, FIG. 16C): significantly increased the SHP-1 activity at a lower concentration; enhancing SHP-1 activity, compared with sorafenib (SHP-1 [2]; test system not stated at the place, text refers to FIG. 2A): better than the known anti-fibrosis drug sorafenib; SHP-1 activity (SHP-1 [3]): significantly increased the SHP-1 activity at a lower concentration

Source: patent publication US10993923B2, “Method for ameliorating fibrosis using 1-[4-chloro-3-(trifluoromethyl)phenyl]-3-[3-(4-cyanophenoxy)phenyl]urea” (priority 2016, dated 2021)
